target: T1, purified human HDAC6 (Homo sapiens, UniProt Q9UBN7); assay: HDAC6 Enzyme Assay; type: biochemical; conditions: bin: greater than 500 nM and less than 1 μM (lower bound in nM, upper bound in μM)
T1 construct: purchased BPS Bioscience 5006
T1 sequence (Q9UBN7 1-1215): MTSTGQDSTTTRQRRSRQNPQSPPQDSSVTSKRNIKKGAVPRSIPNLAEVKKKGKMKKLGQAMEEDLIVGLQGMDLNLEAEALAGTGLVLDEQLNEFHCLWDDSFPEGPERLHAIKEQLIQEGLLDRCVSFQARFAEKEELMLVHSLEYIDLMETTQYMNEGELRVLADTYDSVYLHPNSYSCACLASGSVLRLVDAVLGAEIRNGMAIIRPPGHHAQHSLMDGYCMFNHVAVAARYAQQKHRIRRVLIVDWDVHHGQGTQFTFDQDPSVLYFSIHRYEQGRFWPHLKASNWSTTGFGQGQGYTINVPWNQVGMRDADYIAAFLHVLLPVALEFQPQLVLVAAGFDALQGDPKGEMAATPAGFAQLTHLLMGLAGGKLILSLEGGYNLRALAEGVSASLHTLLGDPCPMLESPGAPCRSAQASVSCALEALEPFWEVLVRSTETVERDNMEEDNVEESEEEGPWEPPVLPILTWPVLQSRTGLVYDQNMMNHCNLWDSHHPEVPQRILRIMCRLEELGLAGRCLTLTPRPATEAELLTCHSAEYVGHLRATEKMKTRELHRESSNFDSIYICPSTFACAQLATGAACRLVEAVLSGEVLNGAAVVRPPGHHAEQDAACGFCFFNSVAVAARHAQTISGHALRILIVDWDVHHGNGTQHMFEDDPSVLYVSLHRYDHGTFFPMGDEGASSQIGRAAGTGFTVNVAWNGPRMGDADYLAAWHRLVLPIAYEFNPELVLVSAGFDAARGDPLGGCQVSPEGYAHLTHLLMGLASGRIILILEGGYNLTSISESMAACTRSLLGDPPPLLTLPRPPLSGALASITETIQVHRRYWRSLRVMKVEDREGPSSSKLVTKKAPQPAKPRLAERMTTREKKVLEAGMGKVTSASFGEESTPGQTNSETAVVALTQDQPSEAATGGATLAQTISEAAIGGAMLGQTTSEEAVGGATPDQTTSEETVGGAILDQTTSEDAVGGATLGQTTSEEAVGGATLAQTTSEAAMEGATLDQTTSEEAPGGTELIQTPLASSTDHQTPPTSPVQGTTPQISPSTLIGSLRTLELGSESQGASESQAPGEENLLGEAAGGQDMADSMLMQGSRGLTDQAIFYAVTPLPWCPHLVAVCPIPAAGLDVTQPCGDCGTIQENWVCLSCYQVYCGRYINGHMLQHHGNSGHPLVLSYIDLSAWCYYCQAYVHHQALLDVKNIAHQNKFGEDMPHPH
How it was run: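 Deacetylated product quantified after trypsin digestion as released AMC (340/460 nm), following a 1 h, 30 °C reaction of human HDAC6 with Ac-RGK(Ac)-AMC peptide, quenched by trichostatin A. IC50 derived from DMSO-normalized curves.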

| IC50 [nM] | Compound |
| --- | --- |
| 500 to 1000 | CC(C)C(NC(=O)c1ccnc2ccccc12)c1ccc(C(=O)NO)cc1 (stereo not drawn) [Compound I-246, N-(1-{4-[(hydroxyamino)carbonyl]phenyl}-2-methylpropyl)quinoline-4-carboxamide] |
| 500 to 1000 | CC(NC(=O)Cc1csc2ccc(Cl)cc12)c1cccc(C(=O)NO)c1 (stereo not drawn) [Compound I-13, 3-(1-{[(5-chloro-1-benzothien-3-yl)acetyl]amino}ethyl)-N-hydroxybenzamide] |
| 500 to 1000 | CC(NC(=O)c1c2c(nn1C)CCCC2)c1cccc(C(=O)NO)c1 (stereo not drawn) [Compound I-101, N-(1-{3-[(hydroxyamino)carbonyl]phenyl}ethyl)-2-methyl-4,5,6,7-tetrahydro-2H-indazole-3-carboxamide] |
| 500 to 1000 | CC(C)(C)C(NC(=O)c1ccc(C(F)(F)F)cc1)c1ccc(C(=O)NO)cc1 (stereo not drawn) [Compound I-303, 4-(2,2-dimethyl-1-{[4-(trifluoromethyl)benzoyl]amino}propyl)-N-hydroxybenzamide] |

same assay, conditions: bin: greater than 1 μM

| IC50 [nM] | Compound |
| --- | --- |
| > 1000 | O=C(NO)c1ccc([C@@H](NC(=O)C23CC4CC(CC(C4)C2)C3)C2CC2)cc1 [Compound I-322, N-((S)-cyclopropyl{4-[(hydroxyamino)carbonyl]phenyl}methyl)adamantane-1-carboxamide] |
| > 1000 | COc1ccccc1CC(=O)NC(C)c1ccc(C(=O)NO)cc1 (stereo not drawn) [Compound I-34, N-hydroxy-4-(1-{[(2-methoxyphenyl)acetyl]amino}ethyl)benzamide] |
| > 1000 | COc1ccc(CCCC(=O)NC(C)c2ccc(C(=O)NO)cc2)cc1 (stereo not drawn) [Compound I-70, N-hydroxy-4-(1-{[4-(4-methoxyphenyl)butanoyl]amino}ethyl)benzamide] |

The remaining lines, values behind:

| Compound | IC50 [nM] |
| --- | --- |
| COc1cc(C(=O)NO)ccc1C(C)NC(=O)C(C)(C)C (stereo not drawn) [Compound I-484, 4-{1-[(2,2-dimethylpropanoyl)amino]ethyl}-N-hydroxy-3-methoxybenzamide] | > 1000 |
| Cc1cc(C(=O)NO)ccc1C(C)NC(=O)C12CC3CC(CC(C3)C1)C2 (stereo not drawn) [Compound I-491, N-(1-{4-[(hydroxyamino)carbonyl]-2-methylphenyl}ethyl)adamantane-1-carboxamide] | > 1000 |
| Cn1c(C(=O)NC(c2ccc(C(=O)NO)cc2)C(C)(C)C)cc2oc(-c3ccc(C(C)(C)C)cc3)cc21 (stereo not drawn) [Compound I-337, 2-(4-tert-butylphenyl)-N-(1-{4-[(hydroxyamino)carbonyl]phenyl}-2,2-dimethylpropyl)-4-methyl-4H-furo[3,2-b]pyrrole-5-carboxamide] | > 1000 |
| C[C@@H](NC(=O)C12CC3CC(CC(C3)C1)C2)c1cccc(C(=O)NO)c1 [Compound I-312, N-((1R)-1-{3-[(hydroxyamino)carbonyl]phenyl}ethyl)adamantane-1-carboxamide] | > 1000 |
| CC(NC(=O)C12CC3CC(CC(C3)C1)C2)c1cccc(C(=O)NO)c1 (stereo not drawn) [Compound I-83, N-(1-{3-[(hydroxyamino)carbonyl]phenyl}ethyl)adamantane-1-carboxamide] | > 1000 |
| CC(NC(=O)Cc1cccc(C(F)(F)F)c1)c1cccc(C(=O)NO)c1 (stereo not drawn) [Compound I-314, N-hydroxy-3-[1-({[3-(trifluoromethyl)phenyl]acetyl}amino)ethyl]benzamide] | > 1000 |
| CC(C)C(NC(=O)c1cc(C(F)(F)F)ccc1C(F)(F)F)c1ccc(C(=O)NO)cc1 (stereo not drawn) [Compound I-155, N-(1-{4-[(hydroxyamino)carbonyl]phenyl}-2-methylpropyl)-2,5-bis(trifluoromethyl)benzamide] | > 1000 |
| CC(NC(=O)Cc1cc(C(F)(F)F)cc(C(F)(F)F)c1)c1cccc(C(=O)NO)c1 (stereo not drawn) [Compound I-362, 3-[1-({[3,5-bis(trifluoromethyl)phenyl]acetyl}amino)ethyl]-N-hydroxybenzamide] | > 1000 |

same assay, conditions: purified human HDAC6, substrate Ac-Arg-Gly-Lys(Ac)-AMC, 1 hour at 30° C.; reported as bins

| IC50 [nM] | Compound |
| --- | --- |
| < 100 | CC(C)C(NC(=O)c1ccc2occc2c1)c1ccc(C(=O)NO)cc1 (stereo not drawn) [Compound I-194, N-(1-{4-[(hydroxyamino)carbonyl]phenyl}-2-methylpropyl)-1-benzofuran-5-carboxamide] |
| < 100 | CCC[C@@H](NC(=O)c1cc2ccccc2n1C)c1ccc(C(=O)NO)cc1 [Compound I-106, N-((1R)-1-{4-[(hydroxyamino)carbonyl]phenyl}butyl)-1-methyl-1H-indole-2-carboxamide] |
| 100 to 500 | Cc1ccc(CNC(=O)NC(C)c2ccc(C(=O)NO)cc2)cc1 (stereo not drawn) [Compound I-277, N-hydroxy-4-[1-({[(4-methylbenzyl)amino]carbonyl}amino)ethyl]benzamide] |
| < 100 | CC(NC(=O)C1=Cc2ccccc2OC1)c1ccc(C(=O)NO)cc1 (stereo not drawn) [Compound I-224, N-(1-{4-[(hydroxyamino)carbonyl]phenyl}ethyl)-2H-chromene-3-carboxamide] |
| 100 to 500 | CC(NC(=O)NC1CCCCC1)c1ccc(C(=O)NO)cc1 (stereo not drawn) [Compound I-395, 4-(1-{[(cyclohexylamino)carbonyl]amino}ethyl)-N-hydroxybenzamide] |
| 100 to 500 | CCc1cc(C(=O)NC(c2ccc(C(=O)NO)cc2)C(C)(C)C)n(C)n1 (stereo not drawn) [Compound I-318, 3-ethyl-N-(1-{4-[(hydroxyamino)carbonyl]phenyl}-2,2-dimethylpropyl)-1-methyl-1H-pyrazole-5-carboxamide] |
| < 100 | CC(NC(=O)CCc1ccccc1)c1ccc(C(=O)NO)cc1 (stereo not drawn) [Compound I-45, N-hydroxy-4-{1-[(3-phenylpropanoyl)amino]ethyl}benzamide] |
| < 100 | CCC[C@@H](NC(=O)C1(C)CCCCC1)c1ccc(C(=O)NO)cc1 [Compound I-387, N-hydroxy-4-((1R)-1-{[(1-methylcyclohexyl)carbonyl]amino}butyl)benzamide] |
| < 100 | CC(NC(=O)c1cc2ccccc2o1)c1ccc(C(=O)NO)cc1 (stereo not drawn) [Compound I-207, N-(1-{4-[(hydroxyamino)carbonyl]phenyl}ethyl)-1-benzofuran-2-carboxamide] |
| < 100 | Cn1ccc2cc(C(=O)NC(c3ccc(C(=O)NO)cc3)C(C)(C)C)ccc21 (stereo not drawn) [Compound I-145, N-(1-{4-[(hydroxyamino)carbonyl]phenyl}-2,2-dimethylpropyl)-1-methyl-1H-indole-5-carboxamide] |
| < 100 | C[C@@H](NC(=O)c1cc2ccccc2s1)c1ccc(C(=O)NO)cc1 [Compound I-184, N-((1R)-1-{4-[(hydroxyamino)carbonyl]phenyl}ethyl)-1-benzothiophene-2-carboxamide] |
| < 100 | CC(NC(=O)c1ccccc1)c1ccc(C(=O)NO)cc1 (stereo not drawn) [Compound I-385, 4-[1-(benzoylamino)ethyl]-N-hydroxybenzamide] |
| < 100 | CC(C)[C@@H](NC(=O)c1cc(Cl)c(Cl)n1C)c1ccc(C(=O)NO)cc1 [Compound I-96, 4,5-dichloro-N-((1R)-1-{4-[(hydroxyamino)carbonyl]phenyl}-2-methylpropyl)-1-methyl-1H-pyrrole-2-carboxamide] |
| < 100 | CC(NC(=O)C1(C)CC1)c1ccc(C(=O)NO)cc1 (stereo not drawn) [Compound I-154, N-hydroxy-4-(1-{[(1-methylcyclopropyl)carbonyl]amino}ethyl)benzamide] |
| < 100 | COc1ccc(C(=O)N[C@@H](c2ccc(C(=O)NO)cc2)C(C)C)cc1 [Compound I-19, N-((1R)-1-{4-[(hydroxyamino)carbonyl]phenyl}-2-methylpropyl)-4-methoxybenzamide] |

Second part, the compound before the results:

| Compound | IC50 [nM] |
| --- | --- |
| CC(C)C(NC(=O)c1cc2ccccc2o1)c1ccc(C(=O)NO)cc1 (stereo not drawn) [Compound I-32, N-(1-{4-[(hydroxyamino)carbonyl]phenyl}-2-methylpropyl)-1-benzofuran-2-carboxamide] | < 100 |
| CC(C)[C@@H](NC(=O)c1cc2ccccc2n1C)c1ccc(C(=O)NO)cc1 [Compound I-242, N-((1R)-1-{4-[(hydroxyamino)carbonyl]phenyl}-2-methylpropyl)-1-methyl-1H-indole-2-carboxamide] | < 100 |
| CC(NC(=O)c1sccc1-n1cccc1)c1ccc(C(=O)NO)cc1 (stereo not drawn) [Compound I-228, N-(1-{4-[(hydroxyamino)carbonyl]phenyl}ethyl)-3-(1H-pyrrol-1-yl)thiophene-2-carboxamide] | < 100 |

Reference: patent publication US9382197B2, “Substituted hydroxamic acids and uses thereof” (Millennium Pharmaceuticals, Inc., priority 2010, dated 2016)
